In patent US20220096454A1, “CARBOXYLIC ACID DERIVATIVES” (Merck Patent GmbH, priority 2018, published 2022):

Assays:
[1] = target: T1, TNKS1 (Homo sapiens, UniProt O95271); test: TNKS1 activity ELISA (autoparsylation assay); format: biochemical; conditions: GST-tagged Tnks-1 (1023-1327 aa), 10 μM bio-NAD, 1 hour at 30° C.
T1 construct: GST-tagged Tnks-1 (1023-1327 aa, prepared in-house); made in house
Experimental: (§1) Description of the TNKS1 and TNKS2 ELISA Assay
(§2) Biochemical activity testing of TNKS 1 and 2: activity ELISA (Autoparsylation assay)
(§3) For analysis of autoparsylation activity of TNKS 1 and 2 an activity ELISA is performed: In the first step GST tagged TNKS is captured on a Glutathione coated plate. Then the activity assay with biotinylated NAD is performed in the absence/presence of the compounds. During the enzymatic reaction GST tagged TNKS transfers biotinylated ADP-ribose to itself from biotinylated NAD as co-substrate. For the detection streptavidin-HRP conjugate is added that binds to the biotinylated TNKS and is thereby captured to the plates. The amount of biotinylated resp. autoparsylated TNKS is detected with a luminescence substrate for HRP. The level of the luminescence signal correlates directly with the amount of autoparsylated TNKS and therefore with activity of TNKS.
(§4) The activity ELISA is performed in 384 well Glutathione coated microtiter plates (Express capture Glutathione coated plate, Biocat, Heidelberg, Germany). The plates are pre-equilibrated with PBS. […] The plates are washed 3 times with PBS-Tween-20. The wells are blocked by incubation at room temperature for 20 minutes with 50 μl blocking buffer (PBS, 0.05% Tween-20, 0.5% BSA). Afterwards the plates are washed 3 times with PBS-Tween-20. […] The reaction is stopped by 3 times washing with PBS-Tween-20. For the detection 50 μl of 20 ng/μl Streptavidin, HRP conjugate (MoBiTec, Göttingen, Germany) in PBS/0.05% Tween-20/0.01% BSA are added and the plates are incubated for 30 minutes at room temperature. After three times washing with PBS-Tween-20 50 μl of SuperSignal ELISA Femto Maximum sensitivity substrate solution (ThermoFisherScientific (Pierce), Bonn, Germany) are added. Following a 1 minute incubation at room temperature luminescence signals are measured with an Envision multimode reader (Perkin Elmer LAS Germany GmbH) at 700 nm. The full value used is the inhibitor-free reaction. […] The inhibitory values (IC50) are determined using either the program Symyx Assay Explorer® or Condosseo® from GeneData.

[2] = target: T2, TNKS2 (Homo sapiens, UniProt Q9H2K2); test: TNKS2 activity ELISA (autoparsylation assay); format: biochemical; conditions: GST-tagged Tnks-2 (873-1166 aa), 10 μM bio-NAD, 1 hour at 30° C.
T2 construct: GST-tagged Tnks-2 (873-1166 aa, prepared in-house); made in house
Experimental: as §1, §2, §3, §4

[3] = test system: Tankyrases; conditions: read-out: EC50 [M] TNKS cellular assay; increase of Axin2 level in colon carcinoma cell line DLD1, 24 hours
Experimental: Measurement of Cellular Inhibition of Tankyrase
Cells of the colon carcinoma cell line DLD1 are plated in 96 well plates with 1.5×10^4 cells per well. Next day, cells are treated with a serial dilution of test compound in seven steps as triplicates with a final DMSO concentration of 0.3%. […] The amount of isolated Axin2 protein is determined in a Luminex^200 machine (Luminex Corporation) according to the manufacturer's instruction by counting 100 events per well. […] As controls cells are treated with solvent alone (neutral control) and with a Tankyrase reference inhibitor IWR-2 (3E−06 M) which refers as control for maximum increase of Axin2. For analysis, the obtained data are normalized against the untreated solvent control and fitted for determination of the EC50 values using the Assay Explorer software (Accelrys).

T2 sequence (Q9H2K2 873-1166): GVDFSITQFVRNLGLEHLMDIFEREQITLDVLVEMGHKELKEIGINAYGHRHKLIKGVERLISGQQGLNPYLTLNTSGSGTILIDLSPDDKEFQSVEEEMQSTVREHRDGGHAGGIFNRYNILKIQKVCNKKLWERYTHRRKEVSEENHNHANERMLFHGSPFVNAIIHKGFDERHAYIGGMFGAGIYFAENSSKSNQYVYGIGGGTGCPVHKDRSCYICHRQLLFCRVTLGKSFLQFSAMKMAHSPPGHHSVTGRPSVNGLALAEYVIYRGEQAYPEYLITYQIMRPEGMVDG
T1 sequence (O95271 1023-1327): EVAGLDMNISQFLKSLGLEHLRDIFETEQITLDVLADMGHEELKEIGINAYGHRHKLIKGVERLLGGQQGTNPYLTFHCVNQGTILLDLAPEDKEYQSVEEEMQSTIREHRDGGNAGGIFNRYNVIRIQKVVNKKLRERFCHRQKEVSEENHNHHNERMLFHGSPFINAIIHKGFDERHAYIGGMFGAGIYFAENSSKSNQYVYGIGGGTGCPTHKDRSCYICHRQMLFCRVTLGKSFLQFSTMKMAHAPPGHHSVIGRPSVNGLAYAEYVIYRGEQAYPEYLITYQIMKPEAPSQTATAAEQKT

In the case of `COc1ccc(N(C)C(=O)N2CCC(C(=O)c3ccc4c(c3)cc(C(=O)O)n4C)CC2)cc1` [Compound C7, 5-{1-[(4-Methoxy-phenyl)-methyl-carbamoyl]-piperidine-4-carbonyl}-1-methyl-1H-indole-2-carboxylic Acid], the IC50 [1] is reported as 1.3 nM, the IC50 [2] is reported as 1.3 nM and the EC50 [3] is reported as 6.31e-08 M.
For `CCN(C(=O)N1CCC(C(=O)c2ccc3c(c2)ncn3C)CC1)c1ccc(C(=O)O)cc1` [Compound C31, 4-{Ethyl-[4-(1-methyl-1H-benzimidazole-5-carbonyl)-piperidine-1-carbonyl]-amino}-benzoic Acid], the IC50 [1] was 3.5 nM, the IC50 [2] was 2.6 nM and the EC50 [3] was 3.69e-07 M.
`CN(C(=O)N1CCC(C(=O)c2ccc3nnn(C)c3c2)CC1)c1ccc(C(=O)O)cc1` [Compound C34, 4-{Methyl-[4-(3-methyl-3H-benzotriazole-5-carbonyl)-piperidine-1-carbonyl]-amino}-benzoic Acid] gave an IC50 [1] of 2.6 nM, an IC50 [2] of 1.1 nM and an EC50 [3] of 3.2e-06 M.
Compound `CN(C(=O)N1CCC(C(=O)c2ccc3c(cnn3C)c2)CC1)c1cccc(C(=O)O)c1` [Compound C24, 3-{Methyl-[4-(1-methyl-1H-indazole-5-carbonyl)-piperidine-1-carbonyl]-amino}-benzoic Acid] has an IC50 [1] of 1.3 nM, an IC50 [2] of 0.63 nM and an EC50 [3] of 6.4e-07 M.
Compound `CN(C(=O)N1CCC(C(=O)c2ccc3c(c2)cc(C(=O)O)n3C)CC1)c1ccc(F)cc1` [Compound C5, 5-{1-[(4-Fluoro-phenyl)-methyl-carbamoyl]-piperidine-4-carbonyl}-1-methyl-1H-indole-2-carboxylic acid] has an IC50 [1] of 1 nM, an IC50 [2] of 1.4 nM and an EC50 [3] of 7.4e-08 M.
For `CN(C(=O)N1CCC(C(=O)c2ccc3cc(C(=O)O)n(C)c3c2)CC1)c1ccc(F)cc1` [Compound C1, 6-{1-[(4-Fluoro-phenyl)-methyl-carbamoyl]-piperidine-4-carbonyl}-1-methyl-1H-indole-2-carboxylic Acid], the IC50 [1] was 3.5 nM, the IC50 [2] was 1.1 nM and the EC50 [3] was 2.1e-07 M.
`CN(C(=O)N1CCC(C(=O)c2ccc3c(C(=O)O)nn(C)c3c2)CC1)c1ccc(F)cc1` [Compound C9, 6-{1-[(4-Fluoro-phenyl)-methyl-carbamoyl]-piperidine-4-carbonyl}-1-methyl-1H-indazole-3-carboxylic Acid] showed an IC50 [1] of 3.29 nM, an IC50 [2] of 1.66 nM and an EC50 [3] of 4.9e-06 M.
